The record followed here is PubChem BioAssay (NCI).

The structures appear in SMILES notation.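 Where inhibition never reached the appropriate level, the endpoint shown equals the highest concentration tested. Otherwise, values were interpolated linearly from a five-concentration, 48-hour dose response in 96-well plates. At the GI50, growth is halved. The concentration for full growth arrest is given as TGI.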

Some test systems named below: SF-268 CNS; TK-10 renal; UACC-62 melanoma; UO-31 renal; HOP-62 NSCLC; KM12 colon; NCI-H522 lung; EKVX NSCLC; DU-145 prostate; SW-620 colon.
Common to all, as to assay: inhibition of tumour cell growth, NCI panel, 48 h

Take `O=C(NCc1ccc(S(=O)(=O)c2cc(F)cc(F)c2)cc1)c1ccc2nccn2c1`: the GI50 in the test with SF-268 CNS was 28.4 µM; in the test with TK-10 renal, 36.3 µM; with UACC-62 melanoma, over 51 µM; with UO-31 renal it was over 44.8 µM; in the test with HOP-62 NSCLC it was 23 µM; with KM12 colon it was 0.328 µM. In addition, the GI50 in the test on NCI-H522 lung was under 0.01 µM; in the test with EKVX NSCLC, 23.3 µM; in the test on DU-145 prostate, 0.0773 µM; in the test with SW-620 colon it was under 0.01 µM. Moreover, the TGI is over 100 µM in the test with SF-268 CNS; over 62.9 µM in the test with TK-10 renal; over 100 µM in the test with UACC-62 melanoma; over 100 µM with UO-31 renal; 74 µM with HOP-62 NSCLC; over 100 µM with KM12 colon. Moreover, the TGI in the test with NCI-H522 lung was 43 µM; in the test with EKVX NSCLC, over 100 µM; with DU-145 prostate, over 100 µM; in the test on SW-620 colon, over 100 µM.
As to `Nc1nc(N)nc(CCCc2nc(N)nc(N)n2)n1`, the TGI in the test on SF-268 CNS, in the test with TK-10 renal, with UACC-62 melanoma, in the test on UO-31 renal, in the test on HOP-62 NSCLC and in the test with KM12 colon was over 100 µM each time. In addition, the TGI in the test on NCI-H522 lung, in the test with EKVX NSCLC, with DU-145 prostate and with SW-620 colon was over 100 µM each time.
As for `Nc1ccccc1SC1CC(=O)N(c2ccc(Cl)c(Cl)c2)C1=O` (stereo not drawn), the GI50 with SF-268 CNS was 29.7 µM; with TK-10 renal it was 20 µM; with UACC-62 melanoma it was 14 µM; in the test with UO-31 renal, 11.7 µM; with HOP-62 NSCLC, 21 µM; with KM12 colon, 16.2 µM. Moreover, the GI50 was 19.4 µM in the test with NCI-H522 lung, 17.4 µM in the test on EKVX NSCLC, 27.5 µM in the test on DU-145 prostate and 56.5 µM with SW-620 colon. Moreover, the TGI with SF-268 CNS is over 100 µM; in the test with TK-10 renal, 53 µM; in the test on UACC-62 melanoma it was over 100 µM; in the test with UO-31 renal it was 45 µM; in the test on HOP-62 NSCLC it was 66.7 µM; in the test on KM12 colon, over 100 µM. Besides, the TGI with NCI-H522 lung, with EKVX NSCLC, with DU-145 prostate and in the test with SW-620 colon was over 100 µM each time.
In the case of `C[C@H]1CCC/C=C/[C@@H]2C[C@H](O)C[C@H]2[C@H](O)[C@@H](SCC(O)CO)CC(=O)O1` (stereo partly drawn), the GI50 in the test on SF-268 CNS is 10.9 µM; in the test on TK-10 renal, 48 µM; in the test on UACC-62 melanoma, 16.3 µM; in the test on UO-31 renal, 21.4 µM; in the test on HOP-62 NSCLC it was 33.2 µM; in the test on KM12 colon it was 3.81 µM. The GI50 is 95.6 µM with NCI-H522 lung, 27.7 µM in the test with EKVX NSCLC, 17.8 µM with DU-145 prostate and 30.9 µM with SW-620 colon. Also, the TGI in the test on SF-268 CNS is over 100 µM; with TK-10 renal, over 100 µM; in the test on UACC-62 melanoma, 82.2 µM; in the test on UO-31 renal, 71 µM; in the test with HOP-62 NSCLC, over 100 µM; with KM12 colon, 20 µM. The TGI in the test on NCI-H522 lung is over 100 µM; in the test with EKVX NSCLC, over 100 µM; with DU-145 prostate, 39.2 µM; in the test with SW-620 colon it was over 100 µM.
`CC1=CC(=O)C(C(O)(C(F)(F)F)C(F)(F)F)C(C)(C)C1` (stereo not drawn): the TGI in the test on SF-268 CNS, in the test on TK-10 renal, in the test with UACC-62 melanoma, in the test on UO-31 renal, with HOP-62 NSCLC and with KM12 colon was over 10 µM in each case. Further, the TGI with NCI-H522 lung, in the test with EKVX NSCLC, in the test with DU-145 prostate and in the test on SW-620 colon was over 10 µM throughout.
Consider `O=C(OCC(OC(=O)c1ccccc1)C(OC(=O)c1ccccc1)C(OC(=O)c1ccccc1)c1cnn(-c2ccccc2)n1)c1ccccc1` (stereo not drawn), for which the TGI in the test on SF-268 CNS, in the test with TK-10 renal, in the test on UACC-62 melanoma, in the test on UO-31 renal, in the test on HOP-62 NSCLC and with KM12 colon was over 100 µM throughout. Further, the TGI in the test with NCI-H522 lung, with EKVX NSCLC, in the test on DU-145 prostate and in the test with SW-620 colon was over 100 µM in each case.
Turning to `CCOC(CN(C)C(=S)Nc1cccc2ccccc12)OCC`, the TGI in the test with SF-268 CNS, with TK-10 renal, with UACC-62 melanoma, in the test with UO-31 renal, in the test on HOP-62 NSCLC and in the test with KM12 colon was over 10 µM in each case. For the same compound, the TGI in the test on NCI-H522 lung, in the test with EKVX NSCLC, in the test with DU-145 prostate and in the test on SW-620 colon was over 10 µM throughout.
Take `CC[C@@]1(O)C(=O)OCc2c1cc1n(c2=O)Cc2c-1nc1cc(F)c(C)c3c1c2[C@@H](N)CC3`: the GI50 with SF-268 CNS is under 0.01 µM; with TK-10 renal it was 0.0725 µM; in the test with UACC-62 melanoma it was under 0.01 µM; in the test with UO-31 renal, under 0.01 µM; in the test on HOP-62 NSCLC, under 0.01 µM; in the test with KM12 colon it was 0.0203 µM. In addition, the GI50 in the test with NCI-H522 lung was under 0.01 µM; in the test on EKVX NSCLC it was 0.0377 µM; in the test with DU-145 prostate, under 0.01 µM; with SW-620 colon, under 0.01 µM. For the same compound, the TGI came out at 2.17 µM in the test with SF-268 CNS; 0.0208 µM in the test on UACC-62 melanoma; 0.108 µM with UO-31 renal; 0.159 µM in the test on HOP-62 NSCLC; 24.7 µM in the test on KM12 colon; 0.531 µM in the test on NCI-H522 lung. In addition, the TGI in the test with EKVX NSCLC, in the test on DU-145 prostate and with SW-620 colon was over 100 µM each time.
Regarding `COc1ccc(Cc2cnc(NC(=O)c3ccc4c(c3)OCCO4)s2)cc1`, the GI50 with SF-268 CNS is 0.211 µM; in the test with TK-10 renal, 0.406 µM; in the test on UACC-62 melanoma, 0.0292 µM; with UO-31 renal, 1.2 µM; with HOP-62 NSCLC it was 0.0602 µM; with KM12 colon it was 0.0264 µM. The GI50 in the test on NCI-H522 lung was under 0.0125 µM; with EKVX NSCLC it was 0.0596 µM; with DU-145 prostate, 0.037 µM; in the test on SW-620 colon, 0.0338 µM. The TGI in the test with SF-268 CNS is over 100 µM; in the test on TK-10 renal, 35.3 µM; in the test with UACC-62 melanoma it was 40.6 µM; with UO-31 renal, over 100 µM; with HOP-62 NSCLC it was over 100 µM; in the test with KM12 colon, 11.1 µM. The TGI with EKVX NSCLC was over 100 µM; in the test on DU-145 prostate it was over 41.1 µM; in the test on SW-620 colon, over 100 µM.
Consider `Cn1c(=O)c2c(ncn2CC(=O)Nc2ccc(-c3ccccc3)nn2)n(C)c1=O`, for which the GI50 in the test on SF-268 CNS is over 100 µM; in the test on TK-10 renal it was over 100 µM; with UACC-62 melanoma, 84.7 µM; in the test with UO-31 renal it was over 100 µM; in the test with HOP-62 NSCLC, over 100 µM; with KM12 colon, over 100 µM. Besides, the GI50 with NCI-H522 lung, in the test with EKVX NSCLC, in the test with DU-145 prostate and in the test on SW-620 colon was over 100 µM throughout. In addition, the TGI in the test with SF-268 CNS, in the test with TK-10 renal, in the test on UACC-62 melanoma, in the test with UO-31 renal, in the test with HOP-62 NSCLC and in the test on KM12 colon was over 100 µM in each case. For the same compound, the TGI with NCI-H522 lung, in the test on EKVX NSCLC, in the test on DU-145 prostate and with SW-620 colon was over 100 µM in each case.
Regarding `COC(=O)CCC1=C(CC(=O)OC)C(C)=N/C1=C\c1[nH]c(-c2ccc[nH]2)cc1OC`, the GI50 in the test on SF-268 CNS was 5.95 µM; in the test with TK-10 renal, 3.58 µM; with UACC-62 melanoma, 3.09 µM; in the test on UO-31 renal it was 3.44 µM; with HOP-62 NSCLC, 8.56 µM; in the test on KM12 colon it was 2.67 µM. The GI50 with NCI-H522 lung was 1.81 µM; in the test on EKVX NSCLC, 5.61 µM; with DU-145 prostate it was 5.87 µM; in the test with SW-620 colon, 3.63 µM. Further, the TGI in the test with SF-268 CNS is 21.3 µM; in the test on TK-10 renal, 16.6 µM; in the test on UACC-62 melanoma it was 11.5 µM; in the test on UO-31 renal, 14.7 µM; in the test on HOP-62 NSCLC, 24.2 µM; in the test on KM12 colon, 15 µM. Further, the TGI with NCI-H522 lung was determined as 3.97 µM; with EKVX NSCLC, 25.3 µM; with DU-145 prostate, 22.6 µM; in the test on SW-620 colon, 18 µM.
On to `Cc1ccc(Nc2nnc(-c3ccc4c(c3)OCO4)o2)c(C)c1`, for which the TGI in the test with SF-268 CNS, with TK-10 renal, in the test on UACC-62 melanoma, with UO-31 renal, in the test with HOP-62 NSCLC and in the test with KM12 colon was over 100 µM in each case. Also, the TGI in the test with NCI-H522 lung, in the test with EKVX NSCLC, in the test with DU-145 prostate and with SW-620 colon was over 100 µM each time.
As to `CC/C=C/C/C=C/C/C=C/C/C=C/C/C=C/C/C=C/CCC(=O)Nc1ccn([C@@H]2O[C@H](CO)[C@@H](O)C2(F)F)c(=O)n1`, the GI50 was 0.0631 µM with SF-268 CNS; 39.1 µM in the test on TK-10 renal; 0.0499 µM with UACC-62 melanoma; 0.0486 µM in the test on UO-31 renal; 0.0293 µM in the test on HOP-62 NSCLC; 1.42 µM in the test on KM12 colon. Further, the GI50 was 0.261 µM in the test on NCI-H522 lung, 6.14 µM in the test with EKVX NSCLC, 0.043 µM with DU-145 prostate and 0.148 µM with SW-620 colon. Further, the TGI with SF-268 CNS was 26.3 µM; with TK-10 renal, over 66.5 µM; in the test with UACC-62 melanoma, 11.9 µM; in the test with UO-31 renal, 4.28 µM; with HOP-62 NSCLC it was 6.55 µM; with KM12 colon it was 39.8 µM. For the same compound, the TGI in the test on NCI-H522 lung is 37.7 µM; in the test with EKVX NSCLC it was over 58.9 µM; in the test on DU-145 prostate it was 24.9 µM; with SW-620 colon, 47.6 µM.
